Reference: US9994594B2, “Inhibitors of arginase and their therapeutic applications” (MARS, INCORPORATED, priority 2010, dated 2018)
pIC50: −log10 of the molar value. Where a name gives a salt, the structure may show the parent alone. Read-outs that look alike come from different tables or passages of the source.

What was measured:
human arginase I (ARG I) = target: T1, human arginase I (ARG I) (Homo sapiens, UniProt P05089); assay: Inhibition of arginase I, spectrophotometric urea assay at 530 nm; format: biochemical; conditions: read-out: Potency (ARG I)
T1 sequence (P05089 1-322): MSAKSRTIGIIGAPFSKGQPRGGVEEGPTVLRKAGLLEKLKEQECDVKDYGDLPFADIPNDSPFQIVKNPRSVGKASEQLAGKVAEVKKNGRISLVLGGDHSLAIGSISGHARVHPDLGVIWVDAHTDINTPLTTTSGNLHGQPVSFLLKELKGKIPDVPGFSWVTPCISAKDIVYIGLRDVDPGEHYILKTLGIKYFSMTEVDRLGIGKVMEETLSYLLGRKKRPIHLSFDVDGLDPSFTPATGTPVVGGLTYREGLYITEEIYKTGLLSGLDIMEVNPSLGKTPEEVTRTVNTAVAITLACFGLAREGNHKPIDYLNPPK
Procedure, shortened: (§1)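 IC50 was derived by regression of OD530 normalized to uninhibited-enzyme controls against log concentration. Urea from 60-min, 37 °C turnover of L-arginine with manganese sulfate was detected after acid o-phthaldialdehyde/primaquine quench and 10 min colour development. Arginase I and II came from 100 ng/ml stocks in pH 7.4 phosphate with ovalbumin.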

arginase II (ARG II) = target: T2, arginase II (ARG II) (Homo sapiens, UniProt P78540); assay: Inhibition of arginase II, spectrophotometric urea assay at 530 nm; format: biochemical
T2 sequence (P78540 23-354): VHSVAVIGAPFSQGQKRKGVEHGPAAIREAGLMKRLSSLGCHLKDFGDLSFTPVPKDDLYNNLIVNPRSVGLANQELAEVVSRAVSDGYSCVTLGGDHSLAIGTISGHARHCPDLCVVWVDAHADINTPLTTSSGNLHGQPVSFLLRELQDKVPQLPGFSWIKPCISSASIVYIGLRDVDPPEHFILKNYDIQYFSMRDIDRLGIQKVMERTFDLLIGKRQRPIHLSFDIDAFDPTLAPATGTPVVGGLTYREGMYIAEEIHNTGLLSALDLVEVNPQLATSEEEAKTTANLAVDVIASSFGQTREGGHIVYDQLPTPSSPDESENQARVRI
Procedure, shortened: as §1

[1] = Formula II compounds, Table 2-A
[2] = Formula II compounds, Table 2-A, read-out: Potency (ARG)
[3] = Formula I compounds, Table 2, read-out: Potency (ARG II)

Work on `NC(CCCCB(O)O)(C(=O)O)C1CCN(CCCc2ccc(Cl)cc2)CC1` (centres unmarked) [Example 46-A, 2-amino-6-borono-2-(1-(3-(4-chlorophenyl)propyl)piperidin-4-yl)hexanoic acid] yielded a pIC50 (human arginase I (ARG I); [1]) of 6.60 to 10.00 and a pIC50 (arginase II (ARG II); [2]) of 6.60 to 10.00.

Work on `CN(CCC(N)(CCCCB(O)O)C(=O)O)CC(O)c1ccccc1` (centres unmarked) [compound 78, 2-amino-6-borono-2-(2-((2-hydroxy-2-phenylethyl)(methyl)amino)ethyl)hexanoic acid dihydrochloride] yielded a pIC50 (human arginase I (ARG I); Formula I compounds, Table 2) of 5.30 to 5.70 and a pIC50 (arginase II (ARG II); [3]) of 5.30 to 5.70.

Compound `C[C@H](NCC(N)(CCCCB(O)O)C(=O)O)c1ccccc1` (stereo partly drawn) [compound 90, 2-amino-6-borono-2-(((S)-1-phenylethylamino)methyl)hexanoic acid dihydrochloride] has a pIC50 (human arginase I (ARG I); Formula I compounds, Table 2) of 5.30 to 5.70 and a pIC50 (arginase II (ARG II); [3]) of 5.30 to 5.70.

`NC(CCCCB(O)O)(C(=O)O)C1CCN(Cc2ccc(F)c(F)c2)CC1` (centres unmarked) [Example 48-A, 2-amino-6-borono-2-(1-(3,4-difluorobenzyl)piperidin-4-yl)hexanoic acid] showed a pIC50 (human arginase I (ARG I); [1]) of 6.60 to 10.00 and a pIC50 (arginase II (ARG II); [2]) of 6.00 to 6.60.

`CCCC1CCN(CCC(N)(CCCCB(O)O)C(=O)O)CC1` (centres unmarked) [compound 129, 2-amino-6-borono-2-(2-(4-propylpiperidin-1-yl)ethyl)hexanoic acid dihydrochloride] gave a pIC50 (human arginase I (ARG I); Formula I compounds, Table 2) of 6.00 to 6.60 and a pIC50 (arginase II (ARG II); [3]) of 5.70 to 6.00.

With `NC(CCCCB(O)O)(CC[C@@H]1CCCN1)C(=O)O` (stereo partly drawn) [compound 143, 2-amino-6-borono-2-(2-((S)-pyrrolidin-2-yl)ethyl)hexanoic acid dihydrochloride] the pIC50 (human arginase I (ARG I); Formula I compounds, Table 2) was 6.60 to 10.00 and the pIC50 (arginase II (ARG II); [3]) was 6.60 to 10.00.

`CNC(CCCCB(O)O)(CCCNC1Cc2ccccc2C1)C(=O)O` (centres unmarked) [compound 138, 6-borono-2-(3-(2,3-dihydro-1H-inden-2-ylamino)propyl)-2-(methylamino)hexanoic acid dihydrochloride] was tested, and the pIC50 (human arginase I (ARG I); Formula I compounds, Table 2) was 6.60 to 10.00 and the pIC50 (arginase II (ARG II); [3]) was 6.60 to 10.00.

With `N[C@](CCCCB(O)O)(CCN1Cc2ccccc2C[C@H]1CO)C(=O)O` [compound 1, (R)-2-amino-6-borono-2-(2-((S)-3-(hydroxymethyl)-3,4-dihydroisoquinolin-2(1H)-yl)ethyl)hexanoic acid dihydrochloride] the pIC50 (human arginase I (ARG I); Formula I compounds, Table 2) was 6.00 to 6.60 and the pIC50 (arginase II (ARG II); [3]) was 6.00 to 6.60.

Work on `N[C@H]1CC[C@@H]([C@@](N)(CCCCB(O)O)C(=O)O)C1` [17-A, (S)-2-amino-2-((1R,3S)-3-aminocyclopentyl)-6-boronohexanoic acid dihydrochloride] yielded a pIC50 (human arginase I (ARG I); [1]) of 6.60 to 10.00 and a pIC50 (arginase II (ARG II); [2]) of 6.60 to 10.00.

`Cc1cc2c(F)ccc(C)c2nc1N1CCC(C(N)(CCCCB(O)O)C(=O)O)CC1` (centres unmarked) [5-A, 2-amino-6-borono-2-(1-(5-fluoro-3,8-dimethylquinolin-2-yl)piperidin-4-yl)hexanoic acid dihydrochloride] was tested, and the pIC50 (human arginase I (ARG I); [1]) was 5.70 to 6.00 and the pIC50 (arginase II (ARG II); [2]) was 6.00 to 6.60.

`NC(CCCCB(O)O)(CNC(c1ccccc1)C(O)c1ccccc1)C(=O)O` (stereo in doubt) [compound 89, 2-amino-6-borono-2-(((1R,2S)-2-hydroxy-1,2-diphenylethylamino)methyl)hexanoic acid dihydrochloride] was tested, and the pIC50 (human arginase I (ARG I); Formula I compounds, Table 2) was < 5.30 and the pIC50 (arginase II (ARG II); [3]) was < 5.30.

`NC(CCCCB(O)O)(CCN1CCC(O)(Cc2ccccc2)CC1)C(=O)O` (centres unmarked) [compound 34, 2-amino-2-(2-(4-benzyl-4-hydroxypiperidin-1-yl)ethyl)-6-boronohexanoic acid dihydrochloride] showed a pIC50 (human arginase I (ARG I); Formula I compounds, Table 2) of 6.00 to 6.60 and a pIC50 (arginase II (ARG II); [3]) of 5.70 to 6.00.

`NC(CCCCB(O)O)(C(=O)O)C1CCN(C(=O)Nc2ccc(Cl)cc2)C1` [36-A, 2-amino-6-borono-2-((S)-1-(4-chlorophenylcarbamoyl)pyrrolidin-3-yl)hexanoic acid hydrochloride] was tested, and the pIC50 (human arginase I (ARG I); [1]) was 6.00 to 6.60 and the pIC50 (arginase II (ARG II); [2]) was 5.30 to 5.70.

With `C[C@@H](O)CNCC(N)(CCCCB(O)O)C(=O)O` (stereo partly drawn) [compound 85, 2-amino-6-borono-2-(((R)-2-hydroxypropylamino)methyl)hexanoic acid dihydrochloride] the pIC50 (human arginase I (ARG I); Formula I compounds, Table 2) was 5.30 to 5.70 and the pIC50 (arginase II (ARG II); [3]) was 5.30 to 5.70.

In the case of `CC(C)n1cncc1CC(N)(CCCCB(O)O)C(=O)O` (centres unmarked) [compound 107, 2-amino-6-borono-2-((1-isopropyl-1H-imidazol-5-yl)methyl)hexanoic acid dihydrochloride], the pIC50 (human arginase I (ARG I); Formula I compounds, Table 2) was < 5.30 and the pIC50 (arginase II (ARG II); [3]) was < 5.30.

Compound `NC(CCCCB(O)O)(C(=O)O)C1CCN(C(=O)c2ccc(Cl)cc2)CC1` (centres unmarked) [26-A, 2-amino-6-borono-2-[1-(4-chlorobenzoyl)piperidin-4-yl]hexanoic acid hydrochloride] has a pIC50 (human arginase I (ARG I); [1]) of 5.30 to 5.70 and a pIC50 (arginase II (ARG II); [2]) of 5.30 to 5.70.

For `CC(C)Oc1ccc(CN(C)CCC(N)(CCCCB(O)O)C(=O)O)cc1` (centres unmarked) [compound 74, 2-amino-6-borono-2-(2-((4-isopropoxybenzyl)(methyl)amino)ethyl)hexanoic acid dihydrochloride], the pIC50 (human arginase I (ARG I); Formula I compounds, Table 2) was 5.30 to 5.70 and the pIC50 (arginase II (ARG II); [3]) was < 5.30.

With `NC(CCCCB(O)O)(CCN1CCC(CO)CC1)C(=O)O` (centres unmarked) [compound 22, 2-amino-6-borono-2-(2-(4-(hydroxymethyl)piperidin-1-yl)ethyl)hexanoic acid] the pIC50 (human arginase I (ARG I); Formula I compounds, Table 2) was 6.00 to 6.60 and the pIC50 (arginase II (ARG II); [3]) was 6.00 to 6.60.

`O=C(O)C(CCCCB(O)O)NCc1ccc(Cl)cc1` (centres unmarked) [compound 145, 6-borono-2-(4-chlorobenzylamino)hexanoic acid hydrochloride] gave a pIC50 (human arginase I (ARG I); Formula I compounds, Table 2) of 5.70 to 6.00 and a pIC50 (arginase II (ARG II); [3]) of 5.70 to 6.00.

With `CC[C@](N)(CCCCB(O)O)C(=O)O` [compound 15, (S)-2-amino-6-borono-2-ethylhexanoic acid hydrochloride] the pIC50 (human arginase I (ARG I); Formula I compounds, Table 2) was 5.30 to 5.70 and the pIC50 (arginase II (ARG II); [3]) was 5.30 to 5.70.

With `C=CCC(N)(CCCCB(O)O)C(=O)O` (centres unmarked) [compound 14, 2-allyl-2-amino-6-boronohexanoic acid] the pIC50 (human arginase I (ARG I); Formula I compounds, Table 2) was 7.37 and the pIC50 (arginase II (ARG II); [3]) was < 5.30.

Compound `NC(CCCCB(O)O)(C(=O)O)C1CCN(C(=S)NCc2ccc(Cl)cc2)CC1` (centres unmarked) [Example 43-A, 2-amino-6-borono-2-(1-(4-chlorobenzylcarbamothioyl)piperidin-4-yl)hexanoic acid] has a pIC50 (human arginase I (ARG I); [1]) of 6.00 to 6.60 and a pIC50 (arginase II (ARG II); [2]) of 5.70 to 6.00.

Compound `NC(CCCCB(O)O)(CCNC(=S)Nc1ccc(Cl)c(Cl)c1)C(=O)O` (centres unmarked) [compound 119, 2-amino-6-borono-2-(2-(3-(3,4-dichlorophenyl)thioureido)ethyl)hexanoic acid hydrochloride] has a pIC50 (human arginase I (ARG I); Formula I compounds, Table 2) of 6.00 to 6.60 and a pIC50 (arginase II (ARG II); [3]) of 5.70 to 6.00.

`NC(CCCCB(O)O)(C(=O)O)C1CCC(c2ccc(Cl)cc2)CC1` (centres unmarked) [Example 86-A, 2-amino-6-borono-2-(4-(4-chlorophenyl)cyclohexyl)hexanoic acid hydrochloride] was tested, and the pIC50 (human arginase I (ARG I); [1]) was < 5.30 and the pIC50 (arginase II (ARG II); [2]) was < 5.30.

In the case of `NC(CCCCB(O)O)(C(=O)O)C1CCN(Cc2ccccc2)CC1` (centres unmarked) [Example 87-A, 2-amino-2-(1-benzylpiperidin-4-yl)-6-boronohexanoic acid dihydrochloride], the pIC50 (human arginase I (ARG I); [1]) was 6.60 to 10.00 and the pIC50 (arginase II (ARG II); [2]) was 6.60 to 10.00.

`NC(CCCCB(O)O)(C(=O)O)[C@H]1C[C@@H](NCc2ccccc2)C1` (stereo partly drawn) [Example 74-A, cis-2-amino-2-(3-(benzylamino)cyclobutyl)-6-boronohexanoic acid dihydrochloride] gave a pIC50 (human arginase I (ARG I); [1]) of 6.60 to 10.00 and a pIC50 (arginase II (ARG II); [2]) of 6.60 to 10.00.

Work on `NC(CCCCB(O)O)(CCNC1CCCC1)C(=O)O` (centres unmarked) [compound 72, 2-amino-6-borono-2-(2-(cyclopentylamino)ethyl)hexanoic acid dihydrochloride] yielded a pIC50 (human arginase I (ARG I); Formula I compounds, Table 2) of 6.00 to 6.60 and a pIC50 (arginase II (ARG II); [3]) of 6.00 to 6.60.

`COc1cc2c(cc1OC)CN(CCC(N)(CCCCB(O)O)C(=O)O)CC2` (centres unmarked) [compound 26, 2-Amino-6-borono-2-[2-(6,7-dimethoxy-3,4-dihydro-1H-isoquinolin-2-yl)ethyl]-hexanoic acid dihydrochloride] was tested, and the pIC50 (human arginase I (ARG I); Formula I compounds, Table 2) was 6.00 to 6.60 and the pIC50 (arginase II (ARG II); [3]) was 6.00 to 6.60.
